Measurements as given in patent US20210139484A1, “DIHYDROISOQUINOLINE-2(1H)-CARBOXAMIDE AND RELATED COMPOUNDS AND THEIR USE IN TREATING MEDICAL CONDITIONS” (GOSSAMER BIO SERVICES, INC., priority 2018, published 2021).

Target: T1, human HPK1 protein (Homo sapiens, UniProt Q92918)
T1 construct: recombinant human HPK1 protein (a.a. 1-346) was expressed in Sf9 insect cells; GST (N); purchased Signalchem M23-11G; host or cells: Sf9 insect cells (baculovirus)
T1 sequence (Q92918 1-346): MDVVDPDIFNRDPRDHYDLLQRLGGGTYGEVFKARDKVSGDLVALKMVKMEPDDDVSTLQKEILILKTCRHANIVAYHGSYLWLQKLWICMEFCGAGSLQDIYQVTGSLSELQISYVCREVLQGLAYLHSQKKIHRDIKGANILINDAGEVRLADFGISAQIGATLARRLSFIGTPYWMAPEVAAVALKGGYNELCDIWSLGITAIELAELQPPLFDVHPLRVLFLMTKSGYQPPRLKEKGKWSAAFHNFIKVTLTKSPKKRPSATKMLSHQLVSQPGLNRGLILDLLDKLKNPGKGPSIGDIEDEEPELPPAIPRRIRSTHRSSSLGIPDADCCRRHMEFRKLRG
Experiment: Human HPK1 protein TR-FRET assay
Format: biochemical
Conditions: 1 mM ATP, Table 19
Description: Exemplary compounds from the above Examples were tested for ability to inhibit HPK1 using a human HPK1 protein TR-FRET Assay. Assay procedures and results are described below.
N-terminal GST-tagged recombinant human HPK1 protein (a.a. 1-346) was expressed in Sf9 insect cells using a baculovirus expression system (Signalchem Catalog #M23-11G). The enzyme was diluted in assay buffer (50 mM Tris pH 7.5, 1 mM MgCl2, 0.01% NP-40 and 2 mM DTT) to obtain a 4× working solution at a concentration of 40 nM HPK1 enzyme.
A 5 μM stock of ULight™ CREBtide peptide RRPSYRK (Perkin Elmer Product No. TRF0107-M) derived from human cAMP Response Element Binding (CREB) Protein was prepared in storage buffer containing 50 mM Tris-HCl (pH 7.4), 0.9% NaCl, 0.1% BSA, and 0.05% sodium azide. The CREBtide substrate was diluted in assay buffer (50 mM Tris pH 7.5, 1 mM MgCl2, 0.01% NP-40, 2 mM DTT) with 2 mM ATP to a final concentration of 200 nM CREBtide peptide to obtain a 2× working solution of substrate. HPK1 enzyme and CREBtide substrate solutions were mixed with compounds diluted in DMSO to obtain a final concentration of enzyme, substrate, and ATP of 10 nM, 100 nM, and 1 mM, respectively, in 1% DMSO. The final assay mixture was incubated at room temperature for 60 minutes.
A solution of Europium-labeled anti-phospho-CREB (Ser133) antibody (Perkin Elmer Product No. TRF0200-M), EDTA and LANCE™ Detection Buffer (Perkin Elmer Product No. CR97-100) were added to each well to obtain a final concentration of 2 nM antibody, 10 mM EDTA and 1× LANCE buffer. The resulting mixture was incubated at room temperature for 60 minutes.
The fluorescence resonance energy transfer (FRET) signal was measured on an Envision plate reader: Excitation filter=340 nm, APC emission=665 nm, Europium emission=615 nm, dichroic mirror=D400/D630, delay time=100 μs, and integration time=200 μs. The half maximal inhibitory concentration (IC50) values for compounds were calculated from the quotient of the fluorescence signal at 665 nm divided by the fluorescence signal at 615 nm. The quotient of the fluorescence signals in the presence of DMSO without compound is set as 100 percent enzymatic activity. A 4-parameter logistic model in PRISM (GraphPad) was used to calculate the IC50 for a given compound.

IC50 | Compound
500 to 5000 nM | Cc1cc2c(Oc3ccc4c(c3)[C@H](C)N(C(=O)Nc3cnc(OC5CCCN(C)C5)c(C(F)(F)F)c3)CC4)ccnc2[nH]1 (mixture of isomers) [VI-6]
500 to 5000 nM | Cc1cc2c(Oc3ccc4c(c3)[C@H](C)N(C(=O)Nc3cnc(OC5CCCN(C)CC5)c(C(F)(F)F)c3)CC4)ccnc2[nH]1 (mixture of isomers) [VI-13]
< 500 nM | CCN1CCN(Cc2ccc(NC(=O)N3Cc4cc(Oc5ccnc6[nH]ccc56)ccc4C(C)C3)cc2C(F)(F)F)CC1 (single isomer, unassigned) [IV-2]
< 500 nM | CCN1CCN(Cc2ccc(NC(=O)N3CCc4c(C)cc(Oc5ccnc6[nH]ccc56)cc4C3C)cc2C(F)(F)F)CC1 (single isomer, unassigned) [IV-4]
< 500 nM | CCN1CCN(Cc2ccc(NC(=O)N3CCc4cc(F)c(Oc5ccnc6[nH]ccc56)cc4C3C)cc2C(F)(F)F)CC1 (single isomer, unassigned) [IV-6]
< 500 nM | CCN1CCN(Cc2ccc(NC(=O)N3CCc4cc(F)c(Oc5ccnc6[nH]c(C)cc56)cc4C3C)cc2C(F)(F)F)CC1 (single isomer, unassigned) [IV-25]
< 500 nM | Cc1cc2c(Oc3ccc4c(c3)CN(C(=O)Nc3cnc(OC5CCN(C)CC5)c(C(F)(F)F)c3)CC4C)ccnc2[nH]1 (single isomer, unassigned) [IV-39]
< 500 nM | Cc1cc2c(Oc3ccc4c(c3)CN(C(=O)Nc3cnc(OC5CCN(C)CC5)c(C(F)(F)F)c3)CC4C)ccnc2[nH]1 (single isomer, unassigned) [IV-40]
500 to 5000 nM | CCN1CCN(Cc2ccc(NC(=O)N3Cc4cc(Nc5ccnc(NC)c5)cnc4C(C)C3)cc2C(F)(F)F)CC1 (single isomer, unassigned) [IX-2]
5000 to 10000 nM | CCN1CCN(Cc2ccc(NC(=O)N3Cc4cc(Nc5ccnc(NC)c5)cnc4C(C)C3)cc2C(F)(F)F)CC1 (single isomer, unassigned) [IX-3]
< 500 nM | CCN1CCN(Cc2ccc(NC(=O)N3Cc4cc(Oc5ccnc6[nH]c(C)cc56)cnc4C(C)C3)cc2C(F)(F)F)CC1 (single isomer, unassigned) [VII-4]
< 500 nM | CCN1CCN(Cc2ccc(NC(=O)N3Cc4cc(Oc5ccnc6[nH]c(C)cc56)cnc4C(C)C3)cc2C(F)(F)F)CC1 (single isomer, unassigned) [VII-5]
< 500 nM | Cc1cc2c(Oc3cnc4c(c3)CN(C(=O)Nc3cnc(OC5CCN(C)CC5)c(C(F)(F)F)c3)CC4C)ccnc2[nH]1 (single isomer, unassigned) [VII-7]
< 500 nM | Cc1cc2c(Oc3cnc4c(c3)CN(C(=O)Nc3cnc(OC5CCN(C)CC5)c(C(F)(F)F)c3)CC4C)ccnc2[nH]1 (single isomer, unassigned) [VII-8]
< 500 nM | CCN1CCN(Cc2ccc(NC(=O)N3Cc4cc(Oc5ccnc6[nH]c(C)cc56)cnc4C(C)C3)cc2C(F)(F)F)CC1 (single isomer, unassigned) [VII-20]
< 500 nM | CCN1CCN(Cc2ccc(NC(=O)N3Cc4cc(Oc5ccnc6[nH]c(C)cc56)cnc4C(C)C3)cc2C(F)(F)F)CC1 (single isomer, unassigned) [VII-21]
< 500 nM | CCC1CN(C(=O)Nc2ccc(CN3CCN(CC)CC3)c(C(F)(F)F)c2)Cc2cc(Oc3ccnc4[nH]c(C)cc34)cnc21 (single isomer, unassigned) [VII-22]
< 500 nM | CCC1CN(C(=O)Nc2ccc(CN3CCN(CC)CC3)c(C(F)(F)F)c2)Cc2cc(Oc3ccnc4[nH]c(C)cc34)cnc21 (single isomer, unassigned) [VII-23]
< 500 nM | CCN1CCN(Cc2ccc(NC(=O)N3CCc4ncc(Oc5ccnc6[nH]c(C)cc56)cc4C3C)cc2C(F)(F)F)CC1 (single isomer, unassigned) [VIII-2]
500 to 5000 nM | CCN1CCN(Cc2ccc(NC(=O)N3CCc4ncc(Oc5ccnc6[nH]ncc56)cc4C3C)cc2C(F)(F)F)CC1 (single isomer, unassigned) [VIII-4]
500 to 5000 nM | CCN1CCN(Cc2ccc(NC(=O)N3CCc4ncc(Oc5ccnc6[nH]ncc56)cc4C3C)cc2C(F)(F)F)CC1 (single isomer, unassigned) [VIII-5]
500 to 5000 nM | Cc1cc2c(Oc3ccc4c(c3)[C@H](C)N(C(=O)Nc3cnc(OC5CCN(C)CC5C)c(C(F)(F)F)c3)CC4)ccnc2[nH]1 (stereo in doubt) [VI-4]
< 500 nM | Cc1cc2c(Oc3ccc4c(c3)[C@H](C)N(C(=O)Nc3cnc(OC5CCN(C)CC5C)c(C(F)(F)F)c3)CC4)ccnc2[nH]1 (stereo in doubt) [VI-5]
< 500 nM | Cc1cc2c(Oc3ccc4c(c3)[C@H](C)N(C(=O)Nc3cnc(OC5CCN(C)CC5O)c(C(F)(F)F)c3)CC4)ccnc2[nH]1 (stereo in doubt) [VI-8]
500 to 5000 nM | Cc1cc2c(Oc3ccc4c(c3)[C@H](C)N(C(=O)Nc3cnc(OC5CCN(C)CC5O)c(C(F)(F)F)c3)CC4)ccnc2[nH]1 (stereo in doubt) [VI-9]
500 to 5000 nM | Cc1cc2c(Oc3ccc4c(c3)[C@H](C)N(C(=O)Nc3cnc(OC5CCN(C)CC5F)c(C(F)(F)F)c3)CC4)ccnc2[nH]1 (stereo in doubt) [VI-10]

Same assay, conditions: 1 mM ATP, Table 20

IC50 | Compound
< 500 nM | CCN1CCN(Cc2ccc(NC(=O)N3CCc4ncc(Oc5ccnc6[nH]c(C)cc56)cc4C3C)cc2C(F)(F)F)CC1 (single isomer, unassigned) [XI-9]
< 500 nM | CCN1CCN(Cc2ccc(NC(=O)N3Cc4cc(Oc5ccnc6c5CCC(=O)N6)cnc4C(C)C3)cc2C(F)(F)F)CC1 (single isomer, unassigned) [XIV-1]
< 500 nM | CCN1CCN(Cc2ccc(NC(=O)N3Cc4cc(Oc5ccnc6[nH]c(=O)ccc56)cnc4C(C)C3)cc2C(F)(F)F)CC1 (single isomer, unassigned) [XIV-2]
500 to 5000 nM | CCN1CCN(Cc2ccc(NC(=O)N3Cc4cc(Oc5ccnc6[nH]c(=O)cnc56)cnc4C(C)C3)cc2C(F)(F)F)CC1 (single isomer, unassigned) [XIV-7]
500 to 5000 nM | CCN1CCN(Cc2ccc(NC(=O)N3Cc4cc(Oc5ccnc6ncc(=O)[nH]c56)cnc4C(C)C3)cc2C(F)(F)F)CC1 (single isomer, unassigned) [XIV-8]
< 500 nM | CCN1CCN(Cc2ccc(NC(=O)N3Cc4cc(Oc5ccnc6[nH]c(=O)[nH]c56)cnc4C(C)C3)cc2C(F)(F)F)CC1 (single isomer, unassigned) [XIV-12]
< 500 nM | CCN1CCN(Cc2ccc(NC(=O)N3Cc4cc(Oc5ccnc6[nH]c(C7CC7)nc56)cnc4C(C)C3)cc2C(F)(F)F)CC1 (single isomer, unassigned) [XIV-15]
500 to 5000 nM | CCN1CCN(Cc2ccc(NC(=O)N3Cc4cc(Oc5ccnc(NCCO)c5)cnc4C(C)C3)cc2C(F)(F)F)CC1 (single isomer, unassigned) [XIV-16]
> 10000 nM | CCN1CCN(Cc2ccc(NC(=O)N3Cc4cc(Oc5ccnc6[nH]nnc56)cnc4C(C)C3)cc2C(F)(F)F)CC1 (single isomer, unassigned) [XIV-17]
5000 to 10000 nM | CCN1CCN(Cc2ccc(NC(=O)N3Cc4cc(Oc5cc(N)ncc5F)cnc4C(C)C3)cc2C(F)(F)F)CC1 (single isomer, unassigned) [XIV-18]
5000 to 10000 nM | CCN1CCN(Cc2ccc(NC(=O)N3Cc4cc(Oc5ccnc6[nH]c(C)nc56)cnc4C(C)C3)cc2C(F)(F)F)CC1 (single isomer, unassigned) [XIV-27]
< 500 nM | CCN1CCN(Cc2ccc(NC(=O)N3Cc4cc(Oc5ccnc6[nH]c(-c7cnn(C)c7)nc56)cnc4C(C)C3)cc2C(F)(F)F)CC1 (single isomer, unassigned) [XIV-30]
